For data set [1], the target named is T1, hPTHR1-delNT (Homo sapiens, UniProt Q03431).
T1 construct: HA + tetraglycine linker (YPYDVPDYA-GGGG); expressed in transfected cells; host or cells: COS-7 (transient)
T1 sequence (Q03431 with tags, fused parts or gaps): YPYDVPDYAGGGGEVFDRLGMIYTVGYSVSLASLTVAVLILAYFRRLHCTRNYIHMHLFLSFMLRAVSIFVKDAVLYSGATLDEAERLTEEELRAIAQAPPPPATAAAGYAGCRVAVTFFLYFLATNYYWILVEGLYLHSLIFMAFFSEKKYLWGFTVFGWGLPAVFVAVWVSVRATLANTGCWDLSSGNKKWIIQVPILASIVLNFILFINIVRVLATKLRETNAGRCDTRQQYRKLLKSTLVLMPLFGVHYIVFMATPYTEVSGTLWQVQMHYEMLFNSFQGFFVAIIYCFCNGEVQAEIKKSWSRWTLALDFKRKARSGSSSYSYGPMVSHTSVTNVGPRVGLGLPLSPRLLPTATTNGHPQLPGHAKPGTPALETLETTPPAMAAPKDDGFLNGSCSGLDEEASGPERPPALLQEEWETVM
Nature of the data set: cAMP production assay in COS-7 cells expressing hPTHR1-delNT. It is filed as cell-based. The conditions noted are these: COS-7 cells transfected with hPTHR1-delNT. Background: cAMP levels reflect the balance of adenylyl cyclase and phosphodiesterase activity.

Data set [2] concerns the target T2, hPTHR2 (Homo sapiens, UniProt P49190).
T2 construct: expressed in transfected cells; host or cells: COS-7 (transient)
As to the kind of experiment: cAMP production assay in COS-7 cells expressing hPTHR2. The data set is classed as cell-based. The settings on record: COS-7 cells expressing human PTHR2. The protocol: COS-7 cells (ATCC) were seeded into a 96-well flat-bottomed plate (1.4 × 10^4 cells per 100 μl per well) and incubated overnight. The next day, the COS-7 cells were transfected by adding 10 μl of a mixture of hPTHR1, hPTHR2 or mutant hPTHR1 plasmid, rat PTHR1 or rat PTHR2 plasmid, or empty vector (0.1 μg per well), FuGENE HD Transfection Reagent (0.4 μl per well, Promega), and Opti-MEM I Reduced Serum Medium (10 μl per well, Life Technologies) to each well. […] The plate was placed in a 37 °C constant-temperature water bath for 20 min to allow the reaction to proceed. After incubation, the liquid in the wells was discarded, the wells were washed with the assay medium (100 μl per well), and the plate was frozen on dry ice. Next, 40 μl of 50 mmol l^−1 HCl was added to each well, and the plate was stored in a freezer set at ≤−20 °C. The cAMP concentrations were measured by using a cAMP EIA kit (GE Healthcare). EC50 values were determined from three independent experiments in duplicate by a non-linear regression Emax model (JMP ver.9.0.2, SAS Institute). The geometric mean of the EC50 values obtained in three experiments in duplicate was calculated using Microsoft Office Excel 2007. […]

Data set [3] relates to UMR-106 cells. As to the kind of experiment: Gene expression assay in UMR-106 cells. The data set is classed as cell-based, rat. The protocol: UMR-106 cells (ATCC) were incubated with DMEM with 0.2% BSA for 4 h and were then treated with hPTH(1–34) or PCO371 for 1 or 6 h. At 1 or 6 h after adding test compounds, total RNA was isolated by using an RNeasy Plus Kit (Qiagen). cDNA was transcribed from the isolated total RNA by using TaqMan Reverse Transcription Reagents (Thermo Fisher Scientific). mRNA levels were quantified by a real-time PCR system (Thermo Fisher Scientific). The relative quantity of transcripts was calculated by using the comparative threshold cycle (Ct) method and normalized to 18S ribosomal RNA as an internal control. The following cDNA-specific primers and probes were used: Fos (encoded by Fos, Rn02396759_m1), osteocalcin (encoded by Bglap, Rn00566386_g1), receptor activator of nuclear factor-κB ligand (RANKL, encoded by Tnfsf11, Rn00589289_m1), osteoprotegerin (osteoprotegerin, encoded by Tnfrsf11b, Rn00563499_m1) and sclerostin (encoded by Sost, Rn00577971_m1).

Data set [4] concerns fetal rat long bones. As to the kind of experiment: Fetal rat long bone cultures, 45Ca release. The data set is classed as cell-based. The settings on record: organ culture. The protocol: Bone-resorbing activity was assessed by fetal rat long bone cultures. ^45CaCl2 (1,480 kBq, PerkinElmer) was subcutaneously injected into a pregnant Crl:CD(SD) rat (Charles River Laboratories) on its 18th day of gestation. At 48 h after the injection, the pregnant rat was euthanized, and the ulnae and radial bones were isolated from euthanized fetal rats. The long bones were placed on nylon mesh and covered with paraffin paper, and a floating culture in BGJb medium (Life Technologies) containing antibiotic–antimycotic (× 1, Life Technologies) was carried out for 3 days at 37 °C in 95% air and 5% CO2 atmosphere. On the 4th day, the medium was replaced with fresh BGJb medium containing hPTH(1–34) (1 nmol l^−1 to 1 μmol l^−1) or PCO371 (0.1 nmol l^−1 to 3 μmol l^−1) or vehicle (0.1% DMSO and 0.1 mmol l^−1 acetic acid at final concentration) and cultured for a further 4 days at 37 °C. Bone samples were then treated with 10% TCA (500 μl/bone) overnight at 37 °C. Radioactivity of the bone and the medium samples was measured. Four to five long bones were used for each individual dose. ^45Ca release (%) was calculated by the following formula (equation (4)): […]

Data set [5] can be described thus: Pharmacokinetics in TPTX rats. The data set is classed as in vivo, rat. The settings on record: female, Crl:CD(SD), rat, plasma, po.

SMILES strings stand for the structures. Read-outs that look alike come from different tables or passages of the source.

T2 sequence (P49190 25-550): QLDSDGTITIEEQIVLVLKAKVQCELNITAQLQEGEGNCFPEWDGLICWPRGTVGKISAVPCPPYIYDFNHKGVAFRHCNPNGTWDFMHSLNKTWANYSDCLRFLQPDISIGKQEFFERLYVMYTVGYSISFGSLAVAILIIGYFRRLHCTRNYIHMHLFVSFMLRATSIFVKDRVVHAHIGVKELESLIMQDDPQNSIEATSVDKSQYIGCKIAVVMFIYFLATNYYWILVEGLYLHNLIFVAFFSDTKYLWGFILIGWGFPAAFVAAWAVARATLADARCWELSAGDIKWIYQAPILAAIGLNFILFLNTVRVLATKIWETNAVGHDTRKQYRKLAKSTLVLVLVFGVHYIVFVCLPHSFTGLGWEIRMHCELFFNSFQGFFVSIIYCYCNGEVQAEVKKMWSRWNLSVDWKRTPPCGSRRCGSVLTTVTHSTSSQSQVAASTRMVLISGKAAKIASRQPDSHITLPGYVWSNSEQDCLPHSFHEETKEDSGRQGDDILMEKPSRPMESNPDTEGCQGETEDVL

The term EC50 denotes the midpoint of the concentration-response curve. As usually defined, the half-life is the time in which the quantity being followed falls by half. Read a low half-life as rapid decline. What is called AUC is concentration integrated over time. Broadly, the Cmax is the highest concentration seen after dosing. The Tmax is the time at which the peak concentration occurs. In data set [1], `Cc1cc(N2C(=O)NC(=O)C2(C)C)cc(C)c1CCS(=O)(=O)N1CCC2(CC1)N=C(c1ccc(OC(F)(F)F)cc1)NC2=O` [PCO371, 1-{3,5-dimethyl-4-[2-({4-oxo-2-[4-(trifluoromethoxy)phenyl]-1,3,8-triazaspiro[4.5]dec-1-en-8-yl}sulfonyl)ethyl]phenyl}-5,5-dimethylimidazolidine-2,4-dione] gave an EC50 of 2.5 µM. The cAMP production entry in data set [2] is given as “did not stimulate cAMP production”. Also, the “expression of mRNAs for Fos, osteocalcin and RANKL” value in data set [3] (1 h (Fos) or 6 h) was “dose-dependently increased”. Also, the “expression of mRNAs for osteoprotegerin and sclerostin” value in data set [3] (6 h) was “dose-dependently decreased”. For the same compound, the “concentration able to stimulate 45Ca release from prelabeled bones” value in data set [4] was not below 1 µmol/L. Also, the half-life in data set [5] (p.o. 2 mg kg-1) was 6.9 ± 2.3 h; in data set [5] (p.o. 6 mg kg-1) it was 4.9 ± 0.6 h; in data set [5] (p.o. 18 mg kg-1) it was 4.7 ± 0.7 h. For the same compound, the AUC in data set [5] (p.o. 2 mg kg-1, read-out: AUC) was 464 ± 125 ng·h/mL; in data set [5] (p.o. 6 mg kg-1, read-out: AUC) it was 1590 ng·h/mL; in data set [5] (p.o. 18 mg kg-1, read-out: AUC), 9210 ng·h/mL. Also, the highest concentration (Cmax) amounted to 95.6 ± 84.4 ng/mL in data set [5] (p.o. 2 mg kg-1, read-out: Cmax); 216 ± 103 ng/mL in data set [5] (p.o. 6 mg kg-1, read-out: Cmax); 1630 ng/mL in data set [5] (p.o. 18 mg kg-1, read-out: Cmax). Also, the Tmax in data set [5] (p.o. 2 mg kg-1, read-out: Tmax) was 1.4 ± 1 h; in data set [5] (p.o. 6 mg kg-1, read-out: Tmax), 1.3 ± 0.6 h; in data set [5] (p.o. 18 mg kg-1, read-out: Tmax), 3.7 ± 3.8 h.

Values taken from publication PMC5120204, “Identification of an orally active small-molecule PTHR1 agonist for the treatment of hypoparathyroidism” (Nature Communications, 2016).
